# Reference: US7384959B2, “Treatment of convulsive states” (priority 1999, dated 2008)
# Marks after values point to notes of the source that are not given here.
# Columns and labels:
# rat [1] = test: barbital interaction (sleep induction) test; type: in vivo; settings: for NUMBER OF RATS SLEEPING: 10 rats per group; for SLEEP DURATION mean ± s.e.m.: maximum 6 hours after barbital injection
# Excerpt: (§1) The following Tables report the results of the Irwin, PTZ and barbital interaction (sleep induction) tests. Description of these tests may be found in Psychopharmacologica, 13:222-257 (1968), Krall et al, Epilepsia 19:409-428 (1978), and Simon et al, J. Pharmacol, Paris 13:241-252 (1982). See also Roux et al, Phoenix international Pharmacology Reports Nos. D30.2061/2 and D99.021/2.
# In Table 3, the following apply: Student's t Test: NS=Not Significant; *=p<0.05; **=p<0.01; ***=<0.001 Fisher's Exact Test: (number of rats sleeping) No indication=Not Significant; +=p<0.05; ++=p<0.01; +++=p<0.001 • (#): maximum=6 hours after barbital injection (taken 50 minutes after barbital injection).
# [2] = intravenous administration; Srinivas 1993; cited from earlier work
# patients with epilepsy = settings: ABPI Compendium 1999-2000; cited from earlier work
# rat [3] = test: Pentylenetetrazole (PTZ) Seizure Test; type: in vivo; settings: for NUMBER OF CLONIC CONVULSIONS number of rats / NUMBER OF DEATHS number of rats / NUMBER OF TONIC CONVULSIONS number of rats: 10 rats per group; for NUMBER OF CLONIC CONVULSIONS number of rats / NUMBER OF DEATHS number of rats / NUMBER OF TONIC CONVULSIONS number of rats / NUMBER OF CLONIC CONVULSIONS % antagonism / NUMBER OF DEATHS % antagonism / NUMBER OF TONIC CONVULSIONS % antagonism: observed during 60 minutes
# Excerpt: as §1
# Table 2a reports mean results based on animals showing the symptoms (minimum=3 animals). Table 2b reports results observed during 60 minutes. In these Tables: Student's t Test: NS=Not Significant; *=p<0.05; ** p<0.01; ***=p<0.001 Fisher's Exact Test: No indication=Not Significant; **=p<0.01; ***=p<0.001
# [4] = test system: attention-deficit hyperactivity disorder (ADHD); settings: Patrick et al 1987; cited from earlier work
smiles,measurement,setting,value
"COC(=O)C(c1ccccc1)C1CCCCN1 (racemic) [d,l-MPH, d,l-threo-methylphenidate]",SLEEP DURATION % change from control,rat [1]; 0.25 mg/kg s.c. −30 min,+51%
same,NUMBER OF RATS SLEEPING,rat [1]; 0.25 mg/kg s.c. −30 min,9
same,SLEEP DURATION mean ± s.e.m.,rat [1]; 0.25 mg/kg s.c. −30 min,94.2 ± 18.3 NS min
same,SLEEP DURATION % change from control,rat [1]; 0.5 mg/kg s.c. −30 min,−19%
same,NUMBER OF RATS SLEEPING,rat [1]; 0.5 mg/kg s.c. −30 min,8
same,SLEEP DURATION mean ± s.e.m.,rat [1]; 0.5 mg/kg s.c. −30 min,50.2 ± 16.2 NS min
same,SLEEP DURATION % change from control,rat [1]; 1 mg/kg s.c. −30 min,−100%
same,NUMBER OF RATS SLEEPING,rat [1]; 1 mg/kg s.c. −30 min,0 +++
same,SLEEP DURATION mean ± s.e.m.,rat [1]; 1 mg/kg s.c. −30 min,0.0 ± 0.0*** min
same,SLEEP DURATION % change from control,rat [1]; 2 mg/kg s.c. −30 min,−70%
same,NUMBER OF RATS SLEEPING,rat [1]; 2 mg/kg s.c. −30 min,4 +
same,SLEEP DURATION mean ± s.e.m.,rat [1]; 2 mg/kg s.c. −30 min,19.0 ± 12.6 min
same,SLEEP DURATION % change from control,rat [1]; 4 mg/kg s.c. −30 min,−100%
same,NUMBER OF RATS SLEEPING,rat [1]; 4 mg/kg s.c. −30 min,0 +++
same,SLEEP DURATION mean ± s.e.m.,rat [1]; 4 mg/kg s.c. −30 min,0.0 ± 0.0*** min
same,time after dosing with similar plasma levels of the two enantiomers,[2],around 1.5 hours
same,effect on seizure frequency,patients with epilepsy,can cause an increase in seizure frequency in a small number of such patients
Cn1c(=O)c2c(ncn2C)n(C)c1=O [Caffeine],SLEEP DURATION % change from control,rat [1]; 16 mg/kg s.c. −30 min,−99%
same,NUMBER OF RATS SLEEPING,rat [1]; 16 mg/kg s.c. −30 min,1 +++
same,SLEEP DURATION mean ± s.e.m.,rat [1]; 16 mg/kg s.c. −30 min,0.5 ± 0.5*** min
"CN1C(=O)CN=C(c2ccccc2)c2cc(Cl)ccc21 [DIAZEPAM, diazepam, reference compound]",NUMBER OF CLONIC CONVULSIONS number of rats,rat [3]; 4 mg/kg s.c. −30 min,0+++
same,NUMBER OF DEATHS number of rats,rat [3]; 4 mg/kg s.c. −30 min,0+++
same,NUMBER OF TONIC CONVULSIONS number of rats,rat [3]; 4 mg/kg s.c. −30 min,0+++
same,NUMBER OF CLONIC CONVULSIONS % antagonism,rat [3]; 4 mg/kg s.c. −30 min,100%
same,NUMBER OF DEATHS % antagonism,rat [3]; 4 mg/kg s.c. −30 min,100%
same,NUMBER OF TONIC CONVULSIONS % antagonism,rat [3]; 4 mg/kg s.c. −30 min,100%
"CCOC(=O)c1ncn2c1CN(C)C(=O)c1cc(N=[N+]=[N-])ccc1-2 [RO 15-4513, reference compound]",NUMBER OF CLONIC CONVULSIONS number of rats,rat [3]; 2 mg/kg s.c. −30 min,10
same,NUMBER OF DEATHS number of rats,rat [3]; 2 mg/kg s.c. −30 min,10
same,NUMBER OF TONIC CONVULSIONS number of rats,rat [3]; 2 mg/kg s.c. −30 min,10
same,NUMBER OF CLONIC CONVULSIONS % antagonism,rat [3]; 2 mg/kg s.c. −30 min,0%
same,NUMBER OF DEATHS % antagonism,rat [3]; 2 mg/kg s.c. −30 min,0%
same,NUMBER OF TONIC CONVULSIONS % antagonism,rat [3]; 2 mg/kg s.c. −30 min,0%
same,LATENCY TO CLONIC CONVULSIONS % change from control,"rat [3]; 2 mg/kg s.c. −30 min, rat",−37%
same,LATENCY TO CLONIC CONVULSIONS mean ± s.e.m.,"rat [3]; 2 mg/kg s.c. −30 min, rat",345.0 ± 59.4* sec
same,LATENCY TO DEATHS % change from control,"rat [3]; 2 mg/kg s.c. −30 min, rat",−36%
same,LATENCY TO DEATHS mean ± sem.,"rat [3]; 2 mg/kg s.c. −30 min, rat",837.0 ± 116.7** sec
same,LATENCY TO TONIC CONVULSIONS % change from control,"rat [3]; 2 mg/kg s.c. −30 min, rat",−42%
same,LATENCY TO TONIC CONVULSIONS mean ± sem.,"rat [3]; 2 mg/kg s.c. −30 min, rat",681.0 ± 102.6** sec
"COC(=O)[C@H](c1ccccc1)[C@H]1CCCCN1 [d-MPH, d-threo-Methylphenidate]",SLEEP DURATION % change from control,rat [1]; 0.25 mg/kg s.c. −30 min,−83%
same,NUMBER OF RATS SLEEPING,rat [1]; 0.25 mg/kg s.c. −30 min,6
same,SLEEP DURATION mean ± s.e.m.,rat [1]; 0.25 mg/kg s.c. −30 min,10.5 ± 5.3** min
same,SLEEP DURATION % change from control,rat [1]; 0.5 mg/kg s.c. −30 min,−65%
same,NUMBER OF RATS SLEEPING,rat [1]; 0.5 mg/kg s.c. −30 min,8
same,SLEEP DURATION mean ± s.e.m.,rat [1]; 0.5 mg/kg s.c. −30 min,21.6 ± 13.5* min
same,SLEEP DURATION % change from control,rat [1]; 1 mg/kg s.c. −30 min,−97%
same,NUMBER OF RATS SLEEPING,rat [1]; 1 mg/kg s.c. −30 min,3 ++
same,SLEEP DURATION mean ± s.e.m.,rat [1]; 1 mg/kg s.c. −30 min,2.1 ± 1.5*** min
same,SLEEP DURATION % change from control,rat [1]; 2 mg/kg s.c. −30 min,−100%
same,NUMBER OF RATS SLEEPING,rat [1]; 2 mg/kg s.c. −30 min,0 ++
same,SLEEP DURATION mean ± s.e.m.,rat [1]; 2 mg/kg s.c. −30 min,0.0 ± 0.0*** min
same,pharmacological action in the treatment of ADHD,[4],is the property of the d-enantiomer
